Data: patent publication US20190015379A1, “USE OF DIANHYDROGALACTITOL AND ANALOGS AND DERIVATIVES THEREOF, TOGETHER WITH RADIATION, TO TREAT NON-SMALL-CELL CARCINOMA OF THE LUNG AND GLIOBLASTOMA MULTIFORME AND SUPPRESS PROLIFERATION OF CANCER STEM CELLS” (DelMar Pharmaceuticals, Inc., priority 2014, published 2019)
“Also recorded” adds a separate entry of the source.

Key:
[1] = Stability of reconstituted dianhydrogalactitol stock solution; assay type: physicochemical; details: 8 mg/mL in 0.9% sodium chloride for injection
Experimental: Dianhydrogalactitol (DAG) was provided as a lyophilized product at 40 mg of DAG per vial. For administration, 5 mL of 0.9% sodium chloride for injection, USP (saline) was added to yield a DAG solution with a concentration of 8 mg/mL. This stock solution was stable for 4 hours at room temperature or for 24 hours at 4° C. Further dilutions were made to prepare solutions of injection of 0.9 mg/mL (for administration of 0.18 mg/mouse in 0.2 mL; diluted from the 8 mg/mL reconstituted solution); of 0.45 mg/mL (for administration of 0.09 mg/mouse in 0.2 mL; a 1 to 2 dilution of the 0.9 mg/mL solution); and of 0.225 mg/mL (for administration of 0.045 mg/mouse in 0.2 mL; a 1 to 2 dilution of the 0.45 mg/mL solution).

[2] = tested on: CSC and non-CSC cultures derived from primary GBM tissue; experiment: Cell cycle analysis (propidium iodide staining, FACS) in primary GBM cultures; assay type: cell-based, human
Experimental: (§1) “GAPDH” refers to glyceraldehyde-3-phosphate dehydrogenase as a control. For the cell cultures, CSCs were cultured in NSA media supplemented with B27, EGF and bFGF. Non-CSCs were grown in DMEM:F12 with 10% FBS. MGMT methylation and protein expression analysis of each culture was characterized. TMZ or VAL-083 was added to the cultures in the indicated concentrations. Depending on the experiment, cells were also irradiated with 2 Gy in a Cesium irradiator. For assays, cell cycle analysis was performed with Propidium Iodide staining and FACs analysis. Cell viability was analyzed with CellTiter-Glo™ and read on a Promega GloMax™. […] In FIG. 4, “1° GBM” refers to primary glioblastoma multiforme cell cultures.
In FIG. 16, cells were treated with either increasing doses of TMZ (5, 50 100 and 200 μM) or dianhydrogalactitol (“VAL-083”) (1, 5, 25 and 100 μM) and cell cycle analysis was performed 4 days post treatment.
Additional experiments were performed to test the effect of the duration of drug administration. […] Dianhydrogalactitol was left on for the duration of the treatment.

[3] = tested on: CSC and non-CSC cultures derived from primary GBM tissue; experiment: Cell viability (CellTiter-Glo) in primary GBM cultures with or without radiation; assay type: cell-based, human
Experimental: as §1
In FIG. 17, TMZ (50 μM) or dianhydrogalactitol (“VAL-083”) (5 μM) were added to primary CSC cultures at various doses with or without irradiation (2 Gy). Shown are cell cycle profile analysis at day 4 post treatment (A,C) and cell viability analysis at day 6 post treatment (B,D) for the paired CSC (A,B) and non-CSC (C,D) 7996 culture.
In FIG. 18, dianhydrogalactitol (“VAL-083”) was added to primary CSC cultures at various doses (1, 2.5 and 5 μM) with or without irradiation (2 Gy). Shown are cell cycle profile analysis at day 4 post treatment (A,C) and cell viability analysis at day 6 post treatment (B,D) for two different patient-derived CSC cultures, 7996 (A,B) and 8565 (C,D).

[4] = tested on: progressive secondary brain tumor; experiment: Phase I/II dose-escalation study, tumor response in secondary brain tumor patients; assay type: in vivo, human; details: n = 6
Text: The methodology of the study reported in this Example is as follows: An open-label, single arm Phase I/II dose-escalation study designed to evaluate the safety, tolerability, pharmacokinetics and anti-tumor activity of dianhydrogalactitol in patients with: (i) histologically confirmed initial diagnosis of primary WHO Grade IV malignant GBM, now recurrent, or (ii) progressive secondary brain tumor, having failed standard brain radiotherapy, and with brain tumor progression after at least one line of systemic therapy. The study utilizes a 3+3 dose escalation design, until the MTD or the maximum specified dose is reached. Patients receive dianhydrogalactitol intravenously at the assigned dose on days 1, 2, and 3 of each 21-day treatment cycle. In Phase II, additional patients will be treated at the MTD (or other selected optimum Phase II dose) to measure tumor responses. All patients enrolled have previously been treated with surgery and/or radiation, if appropriate, and must have failed both bevacizumab and TMZ, unless contraindicated. For these studies, the following is a summary of the inclusion criteria: (1) Patients must be greater than or equal to 18 years old. […]
Enrollment and evaluation of Cohort 7 (40 mg/m^2) is ongoing. […] Tumor volume is assessed during the study based on RANO criteria. […]

[5] = tested on: GBM cell lines SF188, U251, and T98G; experiment: Tumor growth inhibition in GBM cell lines (FIG. 29); assay type: cell-based, human; details: MGMT negative SF188 and U251, MGMT positive T98G
[6] = tested on: cancer stem cells (BT74, GBM4 and GBM8); details: neurosphere growth assays; Hu et al. 2012; cited from earlier work
[7] = tested on: normal human neural stem cells; details: neurosphere growth assays; Hu et al. 2012; cited from earlier work
GBM = details: cited from earlier work
[8] = in vivo; cited from earlier work

dianhydrogalactitol
stability of stock solution ([1]; 4° C.): 24 h | stability of stock solution ([1]; room temperature): 4 h | cell death, concentration compared with temozolomide ([2]; CSC and non-CSC cultures, FACS profiles (FIGS. 7-9)): cause cell death at lower concentrations than temozolomide | cell cycle arrest in TMZ-resistant cultures ([2]; VAL-083 1, 5, 25 and 100 μM, cell cycle analysis 4 days post treatment, paired CSC and non-CSC): exhibited sensitivity to VAL-083, even at single-micromolar doses | cell cycle arrest and loss of cell viability, summary ([2]; all cultures tested, independent of MGMT status and stem versus non-stem): cell cycle arrest and loss of cell viability in nearly all cultures tested | effect of duration of drug exposure on cell cycle ([2]; washed out after 3 hours versus left on, 7996 GNS, 8279 GNS, 7996 ML, 8565 ML): less effect when washed out after 3 hours | effect in combination with radiation ([3]; 1, 2.5 and 5 μM with or without irradiation (2 Gy), CSC cultures 7996 and 8565): acts as a radiosensitizer in primary CSC cultures; also recorded: potential additive effect of dianhydrogalactitol with radiation | reduction in cell viability with dianhydrogalactitol plus radiation ([3]; 7996 GNS (CSC), low concentration such as 1 μM, radiation): 20% | cell viability in TMZ-resistant cultures ([3]; VAL-083 5 μM, paired CSC and non-CSC 7996 culture, viability day 6 post treatment): decreases cell viability in TMZ-resistant cultures | Tumor Response, Overall ([4]; secondary brain tumors (breast adenocarcinoma 2, small-cell lung carcinoma 3, melanoma 1)): Overall = 17% | Tumor Response, SD (number of patients) ([4]; secondary brain tumors): SD (1) | inhibition of tumor growth compared with TMZ [5]: better than TMZ for inhibiting tumor growth | inhibition of growth of cancer stem cells [6]: 80-100% | effect on normal human neural stem cells [7]: minimal effect | Median O.S. (XRT + Chemo) (GBM; GBM, Eagan (1979), Stupp (2005)): 67 weeks | efficacy in combination with radiation versus radiation alone (GBM; cumulative IV dose of 125 mg/m^2 in a 35 day cycle, brain cancer, Eagan 1979): superior to radiation alone | blood-brain barrier passage [8]: readily crosses the blood-brain barrier and accumulates in brain tissue
